According to patent US20200260700A1, “Transgenic Insect and Use of Same in Methods for Testing Natural or Synthetic Substances” (Robert Bosch Gesellschaft für Medizinische Forschung mbH, priority 2017, published 2020):

Target: human SLC22A1/OCT1 protein (Homo sapiens, UniProt O15245)
Settings: ethidium bromide and cimetidine simultaneously injected into ventral side of Drosophila melanogaster embryos expressing OCT1/SLC22A1 reference sequence in salivary glands (GAL4/UAS); confocal laser scanning microscopy
Method: The salivary glands are moreover characterized by the tissue-specific expression of GFP. These living embryos were injected with 0.5 μM ethidium bromide. The accumulation of ethidium bromide in the salivary glands was visualized by confocal laser scanning microscopy.
The salivary glands are moreover characterized by the tissue-specific expression of GFP. Ethidium bromide and cimetidine were simultaneously injected into the ventral side of the embryos.

Chain of human SLC22A1/OCT1 protein (O15245 whole entry, the tested form may be a part): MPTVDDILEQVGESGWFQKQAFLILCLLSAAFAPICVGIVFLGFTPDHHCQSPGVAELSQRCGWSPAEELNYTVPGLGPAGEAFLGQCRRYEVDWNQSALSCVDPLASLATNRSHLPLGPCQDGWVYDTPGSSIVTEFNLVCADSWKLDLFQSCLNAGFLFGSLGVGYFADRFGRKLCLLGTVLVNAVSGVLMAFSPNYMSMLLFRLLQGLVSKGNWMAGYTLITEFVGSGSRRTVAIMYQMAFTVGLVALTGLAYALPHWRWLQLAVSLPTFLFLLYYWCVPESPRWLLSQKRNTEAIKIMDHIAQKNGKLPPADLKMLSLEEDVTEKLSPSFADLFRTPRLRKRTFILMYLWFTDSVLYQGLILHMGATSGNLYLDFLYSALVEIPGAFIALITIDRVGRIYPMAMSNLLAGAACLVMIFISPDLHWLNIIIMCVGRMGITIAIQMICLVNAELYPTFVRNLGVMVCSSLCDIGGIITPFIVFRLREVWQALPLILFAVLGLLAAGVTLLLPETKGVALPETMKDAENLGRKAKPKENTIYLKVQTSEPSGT

Question: With CN/C(=N/CCSCc1nc[nH]c1C)NC#N [cimetidine] as the compound, how does the “inhibition of the uptake of ethidium bromide” value read?
Answer: The value was “concentration-dependent”.
